Columns and labels:
[1] = tested on: chick chorioallantoic membrane (CAM); assay: Chick CAM angiogenesis assay, induction by RGD collagen peptides; format: in vivo; settings: inhibitor SB202190 10 μM vs DMSO control; FIG. 6F
Method: (§1) The chick chorioallantoic membrane (CAM) assays were carried out with some modifications (19). For all experiments CAMs of 10-day-old chick embryos obtained from Charles River (North Franklin, CT) were separated from the shell membrane. Filter discs either non-treated (inflammation assays) pretreated (angiogenesis assays) with cortisone acetate (3.0 mg/ml) containing RPMI only or FGF-2 (40 ng). CAMs were either non-treated or treated topically with Mab XL313, XL166 or a non-specific control antibody (10 μg/embryo every 24 h for three consecutive treatments). […] At the end of the incubation period the embryos were sacrificed and the CAM tissues were analyzed. Angiogenesis was quantified by counting the number of angiogenic branching blood vessels within the area of the filter disc. The angiogenic index was determined by subtracting the mean number of blood vessel branch points from untreated CAMs from each experimental condition. Eight to twelve embryos were used per condition and experiments were repeated at least three times.
To examine this possibility, the effects of the RGDKGE (SEQ ID NO. 1) containing collagen peptide on angiogenesis and inflammation in the chick CAM were assessed.

YAP = assay: Nuclear YAP in HRMVEC stimulated with soluble peptide, with Src or P38MAPK inhibitor; format: cell-based, human; settings: inhibitors 10 μM; FIGS. 8E and 8F
P38MAPK = P38MAPK phosphorylation in HUVECs attached to collagen peptides, Western blot; format: cell-based, human; settings: PP2 10 μM vs DMSO; FIG. 7F
Method: (§2) Endothelial cells (HUVECs or HRMVECs) were incubated in serum free media with 1 mM MgCl2, 0.2 mM MnCl2 in the presence of a Src inhibitor, PP2, (10 μM) a P38MAPK inhibitor, SB202190 (10 μM) or vehicle only (DMSO) for 10 min at 37° C. Treated cells were then seeded on to immobilized P-1 and P-2 and lysates were collected at 15 min.
Whole cell and CAM tissue lysates were collected in RIPA buffer supplemented with 1× protease inhibitor and 1× phosphatase inhibitor and were run on polyacrylamide gels using denaturing conditions. Prior to loading the gels, 6× sample buffer was added to each of the lysates (final concentration 1×) and boiled for five minutes. Twenty to 50 μg of total protein were loaded into each lane. For detection of proteins larger than 50 kD, 10% gels were used; for proteins smaller than 50 kD 15% gels were used. Gels were run at 60 volts (v) until the dye front passed through the stacking gel, and then the voltage was increased to 100V for the remainder of the separation. Precision Plus protein standards (Bio-Rad) were used to visualize migration. Protein was transferred to nitrocellulose membranes using a wet tank system and blocked for 1 h using 10% non-fat dried milk in tris-buffered saline with 0.01% Tween-20 (TBS-T). […] Western blot bands were quantified using Image J software based on pixel intensity. […]

β3-integrin = β3-integrin phosphorylation in endothelial cells attached to collagen peptides, Western blot; format: cell-based, human; settings: PP2 10 μM vs DMSO; FIG. 7E
Method: as §2
Whole cell and CAM tissue lysates were collected in RIPA buffer supplemented with 1× protease inhibitor and 1× phosphatase inhibitor and were run on polyacrylamide gels using denaturing conditions. Prior to loading the gels, 6× sample buffer was added to each of the lysates (final concentration 1×) and boiled for five minutes. Twenty to 50 μg of total protein were loaded into each lane. For detection of proteins larger than 50 kD, 10% gels were used; for proteins smaller than 50 kD 15% gels were used. […] Western blot bands were quantified using Image J software based on pixel intensity.
(§3) Because both RGD containing peptides bind αvβ3 coupled with the differential effect of these peptides on angiogenesis and inflammation, it was determined whether the RGD peptides differentially altered αvβ3-mediated signaling. […] Therefore, the differential phosphorylation of these protein kinases following the early mechanical-mediated interactions with the RGD containing collagen peptides was assessed. […]

[2] = tested on: chick chorioallantoic membrane (CAM); assay: Chick CAM inflammation assay, induction by RGD collagen peptides; format: in vivo; settings: chick CAM, no cortisone acetate; FIG. 5D
Method: as §1
The effects of the soluble RGD containing collagen peptides on inflammation were examined.

human dermal fibroblasts = assay: Cell adhesion to immobilized RGD collagen peptides, HDF; format: cell-based; settings: peptides immobilized 100 μg/ml; FIG. 1D
Method: (§4) RGD peptides (P-1, P-2, P-3, P-4, P-5, and P-C) were immobilized (100 μg/ml) to wells. HUVEC, HMVEC, HRMVEC, and HDF cells were suspended in adhesion buffer (RPMI containing 1 mM MgCl2, 0.2 mM MnCl2 and 0.5% BSA) and 1×10^5 cells were seeded into the wells in the presence or absence of P4C10, LM609, P1F6 or control antibodies (100 μg/ml). Cells were allowed to attach for 25 min at 37° C. Media containing non-attached cells was aspirated and attached cells were washed with PBS and stained with crystal violet. Cell adhesion was quantified by measuring the optical density of eluted dye. Adhesion assays were completed at least three times with triplicate wells.

[3] = tested on: human retinal microvascular endothelial cells (HRMVEC); assay: Cell adhesion to immobilized RGD collagen peptides, HRMVEC; format: cell-based; settings: peptides immobilized 100 μg/ml; FIG. 1C
Method: as §4

[4] = tested on: human umbilical vein endothelial cell (HUVEC); assay: Cell adhesion to immobilized RGD collagen peptides, HUVEC; format: cell-based; settings: peptides immobilized 100 μg/ml; 25 min at 37° C; FIG. 1A
Method: as §4

[5] = tested on: human microvascular endothelial cells (HMVEC); assay: Cell adhesion to immobilized RGD collagen peptides, HMVEC; format: cell-based; settings: peptides immobilized 100 μg/ml; FIG. 1B
Method: as §4

HUVEC = assay: Cell proliferation assay, HUVEC; format: cell-based, human; settings: peptide 100 ng/ml, 24 hours; FIG. 8C
Method: (§5) HUVECs (WT, shYAP1 or control transfected) or HRMVECs were plated at 2,000 cells per well with complete EGM-2 media containing 2.0% FBS in the absence or presence of P-1, P-2 or P-C (100 ng/ml) and allowed to grow for 24 hours. Cell growth was monitored using a BrdU or MMT assay kits according to manufacturer's instructions. All assays were completed at least three times in triplicate wells.

HRMVEC = assay: Cell proliferation assay, HRMVEC; format: cell-based, human; settings: peptide 100 ng/ml, 24 hours; FIG. 8D
Method: as §5

Fak = Fak phosphorylation in endothelial cells attached to collagen peptides; format: cell-based, human; settings: serum free conditions
Method: Whole cell and CAM tissue lysates were collected in RIPA buffer supplemented with 1× protease inhibitor and 1× phosphatase inhibitor and were run on polyacrylamide gels using denaturing conditions. Prior to loading the gels, 6× sample buffer was added to each of the lysates (final concentration 1×) and boiled for five minutes. Twenty to 50 μg of total protein were loaded into each lane. For detection of proteins larger than 50 kD, 10% gels were used; for proteins smaller than 50 kD 15% gels were used. Gels were run at 60 volts (v) until the dye front passed through the stacking gel, and then the voltage was increased to 100V for the remainder of the separation. Precision Plus protein standards (Bio-Rad) were used to visualize migration. […] Western blot bands were quantified using Image J software based on pixel intensity.
as §3

[6] = tested on: endothelial cells in which YAP was knocked down; assay: Cell proliferation assay, endothelial cells transduced with YAP specific shRNA; format: cell-based, human; settings: soluble peptide (FIG. 8H) or VEGF 50 ng/ml (FIG. 8I)
Method: as §5
Raw cells were transfected with 1 μg of HuSH shRNA plasmids for collagen type I, alpha 2 using Amaxa cell line nucleofector kit V (program #T024). Constructs expressing 21-nucleotide short hairpin RNAs (shRNA) targeting human YAP (shYAP) or non-targeting control (shNT, Sigma-Aldrich, SHC002) were used. Humantargeting shYAP1 lentiviral shRNA was obtained from the Thermo Scientific RNAi consortium (TRCN0000107625). Constructs were packaged into lentivirus, pseudotyped with the vesicular stomatitis virus glycoprotein. Transduction was performed by incubating cells with lentivirus, and stably transduced cells were subsequently used for studies. All cell lines were verified by morphology and mouse and human YAP-specific PCR. […] Endothelial cells were certified mycoplasma-negative by PCR (Lonza), and primary cell cultures were used within the indicated passage numbers. Cells were transduced and selected using puromycin.
Endothelial cells with YAP specific or non-specific shRNAs were transduced.

[7] = tested on: chick chorioallantoic membrane (CAM); assay: Chick CAM inflammation assay, FGF-2 induced, antibody treatment; format: in vivo; settings: chick CAM, FGF-2 stimulated; vs no treatment or control antibody; FIG. 3E
Method: as §1, with “Eight to twelve embryos were used per condition and experiments were repeated at least three times.” left out
The chick CAM has been routinely used to assess inflammation and granulation tissue formation, which are largely dependent on infiltration of chick heterophils (the avian equivalent of neutrophils), macrophages and activated fibroblasts (36,37). To study the potential differential biological impact of RGD epitopes, FGF-2 induced inflammation was examined by carrying out similar experiments in the absence of cortisone acetate and quantifying CAM thickening. […]

Compound: Oc1ccc(-c2nc(-c3ccncc3)c(-c3ccc(F)cc3)[nH]2)cc1 [SB202190, reference compound]
- effect on P-2 induced angiogenesis in the chick CAM [1]: reduced
- reduction of nuclear YAP accumulation in P-2 stimulated endothelial cells as compared to control (YAP): approximately 50%

Compound: CC(C)(C)n1nc(-c2ccc(Cl)cc2)c2c(N)ncnc21 [PP2, reference compound]
- P38MAPK phosphorylation following binding to collagen peptide P-2, with inhibitor (P38MAPK): reduced
- β3 phosphorylation following binding to collagen peptide P-2, with inhibitor (β3-integrin): reduced
- reduction of nuclear YAP accumulation in P-2 stimulated endothelial cells as compared to control (YAP): approximately 50%

Compound: QGPSGAPGE [P-C, reference compound]
- CAM inflammation following stimulation with peptide [2]: Minimal evidence of tissue inflammation
- HDF adhesion to immobilized peptides (human dermal fibroblasts): failed to support interactions
- HRMVEC adhesion to immobilized peptides [3]: failed to support interactions
- HUVEC adhesion to immobilized peptides [4]: failed to support adhesion
- HMVEC adhesion to immobilized peptides [5]: failed to support interactions

Compound: KGDRGDAPG [Mab P-1, Synthetic RGDAPG containing collagen type-I peptide, Colla1 742-750; made with flanking cysteines (…)]
- CAM inflammation following stimulation with peptide [2]: Minimal evidence of tissue inflammation
- HUVEC growth with soluble peptide (HUVEC): minimal effect
- HRMVEC growth with soluble peptide (HRMVEC): minimal effect
- Fak phosphorylation following ligation of peptide (Fak): Minimal Fak phosphorylation

Compound: VEGF
- endothelial cell growth in YAP knock down cells [6]: enhanced growth

Compound: CC(=O)OCC(=O)[C@@]1(O)CC[C@H]2[C@@H]3CCC4=CC(=O)CC[C@]4(C)[C@H]3C(=O)C[C@@]21C [cortisone acetate, reference compound]
- reduction of CAMs exhibiting inflammation (thickening) [7]: greater than 80%

Compound: RGPRGDQGP [Mab P-5, Synthetic RGD containing collagen type-I peptide, Colla2 819-827 (…)]
- HUVEC adhesion to immobilized peptides [4]: highest levels of adhesion

From patent publication US11998600B2, “Enhancing the therapeutic activity of an immune checkpoint inhibitor” (MaineHealth, priority 2015, dated 2024)
